Test results from patent publication US6375974B1 (Mitsui Takeda Chemicals, Inc., priority 1998, dated 2002).

Legend:
[1] = ethanol; cited from earlier work
[2] = dissolution of fine grains in water by slow stirring; assay type: physicochemical; details: 15 g fine grains (80-mesh pass) in 10 l of water at 20° C., slowly stirred for 24 hours
Source text: Because of the low dissolution rate, fumaric acid cannot be completely dissolved but remains as fine grains giving a slurry in these conventional methods. […] When such an aqueous fumaric acid solution is employed in sterilizing meats, the remaining fumaric acid grains sometimes damage the meat tissue.

[3] = system: gram negative bacteria; details: cited from earlier work
[4] = system: various bacteria such as E. coli 0-157; details: at 1.0% and 1.5%; cited from earlier work
[5] = system: various gram negative bacteria; details: cited from earlier work
[6] = system: Escherichia coli O-157; details: cited from earlier work
[7] = cited from earlier work

## CCO [ethanol]
[1]
  time after which a bactericidal effect was exerted: 60 min

## O=C(O)/C=C/C(=O)O [fumaric acid]
[2]
  dissolution of fine grains: not completely dissolved
[3]
  growth of gram negative bacteria: inhibited the growth
[4]
  bactericidal effect compared with other organic acids: exceeding those of other organic acids
[5]; gram negative bacteria (E. coli, salmonella, Shigella, etc.), short contact time
  bactericidal effect: potent bactericidal effect
[5]; within a short time, compared with other organic acids
  antibacterial effect: strong antibacterial effect
[6]
  bactericidal effect: strong bactericidal effect

## O=C([O-])/C=C/C(=O)O.[Na+] [monosodium fumarate]
[7]; aqueous solution
  concentration showing bactericidal effects: 0.8%
[7]; concentration of 0.6% or less
  bactericidal effects: did not show bactericidal effects
